From ChEMBL document CHEMBL1143999, “A new generation of adenosine receptor antagonists: from di- to trisubstituted aminopyrimidines” (Bioorg Med Chem, 2008)

Experiments:
[1] = molecular target: T1, Adenosine receptor A1 (Homo sapiens) (UniProt P30542); assay: Displacement of [3H]DPCPX from human adenosine A1 receptor expressed in CHO cells at 1 uM; format: cell-based
T1 sequence (whole entry): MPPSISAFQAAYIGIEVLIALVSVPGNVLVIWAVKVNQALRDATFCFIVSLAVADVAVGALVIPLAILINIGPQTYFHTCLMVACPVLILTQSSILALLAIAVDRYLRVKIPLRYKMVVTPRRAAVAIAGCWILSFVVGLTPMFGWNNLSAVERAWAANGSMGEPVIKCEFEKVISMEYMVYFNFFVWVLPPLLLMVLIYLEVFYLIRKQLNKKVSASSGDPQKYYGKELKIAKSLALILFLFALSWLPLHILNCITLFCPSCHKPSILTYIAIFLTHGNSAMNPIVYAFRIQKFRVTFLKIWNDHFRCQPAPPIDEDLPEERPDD

Adenosine receptor A2a [2] = molecular target: T2, Adenosine receptor A2a (Homo sapiens, UniProt P29274); assay: Displacement of [3H]ZM-241385 from human adenosine A2A receptor expressed in HEK293 cells at 1 uM; format: cell-based
T2 sequence (P29274 whole entry): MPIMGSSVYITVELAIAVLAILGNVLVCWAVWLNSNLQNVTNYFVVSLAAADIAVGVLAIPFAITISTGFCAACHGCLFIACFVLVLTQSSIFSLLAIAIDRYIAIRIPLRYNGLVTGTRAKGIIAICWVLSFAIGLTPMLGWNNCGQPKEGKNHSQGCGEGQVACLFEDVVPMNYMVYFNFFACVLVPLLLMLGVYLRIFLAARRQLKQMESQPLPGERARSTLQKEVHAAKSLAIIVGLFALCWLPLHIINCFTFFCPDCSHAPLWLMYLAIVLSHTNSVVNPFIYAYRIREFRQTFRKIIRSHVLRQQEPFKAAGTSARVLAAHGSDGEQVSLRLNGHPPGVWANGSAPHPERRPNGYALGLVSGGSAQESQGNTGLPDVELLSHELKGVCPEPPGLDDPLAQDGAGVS

Adenosine receptor A1 [3] = molecular target: T3, Adenosine receptor A1 (Homo sapiens, UniProt P30542); assay: biochemical
T3 sequence (P30542 whole entry): T1 sequence (whole entry)

Adenosine receptor A2a [4] = molecular target: T2, Adenosine receptor A2a; assay: biochemical
[5] = molecular target: T1, Adenosine receptor A1 (Homo sapiens); assay: (§1) Activity at human adenosine A1 receptor expressed in CHO cells assessed as inhibition of CPA-induced decrease in forskolin-stimulated cAMP production by TR-FRET assay; format: functional, cell-based
Adenosine receptor A1 [6] = molecular target: T3, Adenosine receptor A1; assay: as §1; format: functional, cell-based
Adenosine receptor A3 = molecular target: T4, Adenosine receptor A3 (Homo sapiens, UniProt P0DMS8); assay: biochemical
T4 sequence (P0DMS8 whole entry): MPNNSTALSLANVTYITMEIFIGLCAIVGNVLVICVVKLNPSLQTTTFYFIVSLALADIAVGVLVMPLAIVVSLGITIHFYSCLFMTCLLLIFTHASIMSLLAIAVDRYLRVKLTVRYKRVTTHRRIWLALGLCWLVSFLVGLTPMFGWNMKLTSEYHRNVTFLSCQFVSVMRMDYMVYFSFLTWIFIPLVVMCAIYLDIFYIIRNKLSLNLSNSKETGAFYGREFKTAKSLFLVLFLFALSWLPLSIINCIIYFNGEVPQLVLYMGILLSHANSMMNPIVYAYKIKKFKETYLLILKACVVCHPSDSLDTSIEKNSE
Description: Displacement of [3H]AB-MECA from human adenosine A3 receptor expressed in HEK293 cells

Row | SMILES | Ki (Adenosine receptor A1 [3]) [nM] | Ki (Adenosine receptor A2a [4]) [nM] | other results
1 | N#Cc1c(-c2ccccc2)nc(NC(=O)c2ccc(Cl)c(Cl)c2)nc1-c1ccccc1 | – | – | Activity [1]: 58%; Activity (Adenosine receptor A2a [2]): 35%
2 | N#Cc1c(NC(=O)C2CCCC2)nc(-c2ccccc2)nc1-c1ccccc1 | 5.3 | 280 | –
3 | N#Cc1c(N)nc(-c2ccccc2)nc1-c1ccccc1 | 10.8 | 19 | –
4 | N#Cc1c(NC(=O)C2CC2)nc(-c2ccccc2)nc1-c1ccccc1 | 27.9 | 49.8 | –
5 | N#Cc1c(NC(=O)C2CCCC2)nc(-c2ccccc2)nc1-c1ccc2c(c1)OCO2 | – | – | Kb [5]: 28 nM; IC50 (Adenosine receptor A1 [6]): 1400 nM
6 | OC[C@H]1O[C@@H](n2cnc3c(NC4CCCC4)ncnc32)[C@H](O)[C@@H]1O [N6-CYCLOPENTYLADENOSINE] | – | 1650 | –
7 | CCC(CC)C(=O)Nc1nc(-c2ccccc2)c(C#N)c(-c2ccccc2)n1 | 6.4 | 54.5 | –
8 | CCCC(=O)Nc1cc(-c2ccc3c(c2)OCO3)nc(-c2ccccc2)n1 | 6.8 | 222 | Ki (Adenosine receptor A3): 53.9 nM
9 | N#Cc1c(-c2ccccc2)nc(NC(=O)C2CCCC2)nc1-c1ccc2c(c1)OCO2 | 2.8 | 27.2 | –
10 | N#Cc1c(-c2ccccc2)nc(NC(=O)c2ccco2)nc1-c1ccccc1 | – | – | Activity [1]: 26%; Activity (Adenosine receptor A2a [2]): 42%
11 | N#Cc1c(N)nc(-c2ccccc2)nc1-c1ccc2c(c1)OCO2 | 4.9 | 44.3 | –
12 | Cc1ccc(C(=O)Nc2nc(-c3ccccc3)c(C#N)c(-c3ccccc3)n2)cc1 | 115 | 158 | –
13 | N#Cc1c(-c2ccccc2)nc(NC(=O)c2ccc(Cl)cc2)nc1-c1ccccc1 | 92.3 | 32.9 | –
14 | N#Cc1c(-c2ccccc2)nc(NC(=O)C2CC2)nc1-c1ccccc1 | 9.4 | 45.5 | –
15 | CCCC(=O)Nc1nc(-c2ccccc2)c(C#N)c(-c2ccc3c(c2)OCO3)n1 | 8.3 | 21.3 | –
16 | CCC(CC)C(=O)Nc1nc(-c2ccccc2)nc(-c2ccc3c(c2)OCO3)c1C#N | 18.4 | – | Activity (Adenosine receptor A2a [2]): 0%
17 | CCCC(=O)Nc1nc(-c2ccccc2)cc(-c2ccc3c(c2)OCO3)n1 | 43 | – | Activity (Adenosine receptor A2a [2]): 8%

Row | SMILES | Ki (Adenosine receptor A1 [3]) [nM] | Ki (Adenosine receptor A2a [4]) [nM] | other results
18 | O=C(Nc1nc(-c2ccccc2)cc(-c2ccc3c(c2)OCO3)n1)C1CCCC1 | 8.1 | – | Activity (Adenosine receptor A2a [2]): 26%
19 | O=C(Nc1cc(-c2ccc3c(c2)OCO3)nc(-c2ccccc2)n1)C1CCCC1 | 17.3 | 339 | Ki (Adenosine receptor A3): 186 nM
20 | CCCC(=O)Nc1nc(-c2ccccc2)c(C#N)c(-c2ccccc2)n1 | 2.9 | 48.2 | –
21 | N#Cc1c(-c2ccccc2)nc(N)nc1-c1ccc2c(c1)OCO2 | – | 5.2 | –
22 | CCC(CC)C(=O)Nc1cc(-c2ccc3c(c2)OCO3)nc(-c2ccccc2)n1 | 27.9 | 574 | Ki (Adenosine receptor A3): 634 nM
23 | CCC(CC)C(=O)Nc1nc(-c2ccccc2)cc(-c2ccc3c(c2)OCO3)n1 | 17.6 | – | Activity (Adenosine receptor A2a [2]): 33%
24 | Nc1nc(-c2ccccc2)cc(-c2ccccc2)n1 | 17.7 | – | –
25 | N#Cc1c(-c2ccccc2)nc(NC(=O)c2ccccc2)nc1-c1ccccc1 | – | – | Activity [1]: 38%; Activity (Adenosine receptor A2a [2]): 48%
26 | N#Cc1c(-c2ccccc2)nc(N)nc1-c1ccccc1 | – | 22.7 | –
27 | O=C(Nc1cc(-c2ccc3c(c2)OCO3)nc(-c2ccccc2)n1)C1CC1 | 13 | 69.2 | Ki (Adenosine receptor A3): 30.7 nM
28 | CC(C)C(=O)Nc1nc(-c2ccccc2)c(C#N)c(-c2ccccc2)n1 | 2.9 | 35.3 | –
29 | CCCC(=O)Nc1nc(-c2ccccc2)nc(-c2ccccc2)c1C#N | 12.6 | 69.5 | –
30 | CCCC(=O)Nc1nc(-c2ccccc2)nc(-c2ccc3c(c2)OCO3)c1C#N | 13.4 | – | Activity (Adenosine receptor A2a [2]): 23%
31 | N#Cc1c(-c2ccccc2)nc(NC(=O)C2CCCC2)nc1-c1ccccc1 | 1.2 | 159 | Kb [5]: 3 nM; IC50 (Adenosine receptor A1 [6]): 150 nM
32 | Nc1nc(-c2ccccc2)cc(-c2ccc3c(c2)OCO3)n1 | – | 381 | –
33 | COc1ccc(C(=O)Nc2nc(-c3ccccc3)c(C#N)c(-c3ccccc3)n2)cc1 | 102 | 300 | –
